Laboratory results taken from patent publication US8642656B2, “Calixarene-based peptide conformation mimetics, methods of use, and methods of making” (priority 2004, dated 2014).

Key:
HUVEC = test: EC migration, wound healing assay; type: cell-based, human; settings: 25 μM
Procedure: EC migration was measured in the wound healing assay. HUVEC were cultured in triplicate on a 1-mg/ml fibronectin coat in a 24-well tissue culture plate. Cells were grown for 3 days until confluence. When confluent, a wound was made in the well, using a blunt glass pipette. The medium was replaced with medium containing 10 ng/ml bFGF with or without 25 μM compound and at 0, 2, 4, 6, and 8 hours, the wound width was measured at four different predefined places. Photographs were made using an inverted microscope and a Contax 167 MT 35 mm camera.

B16 melanoma = B16 melanoma tumor growth model in mice; type: in vivo; settings: tumor-bearing mice
Procedure: (§1) Female athymic nude mice (nu/nu, 5-6 weeks old) were used. These mice were purchased from the National Cancer Institute and allowed to acclimatize to local conditions for at least one week. Animals were given water and standard chow ad libitum, and were kept on a 12-hour light/dark cycle. All experiments were approved by the University of Minnesota Research Animal Resources ethical committee. Mice were randomized and split into three groups: 1) human serum albumin (10 mg/kg/day), 2) βpep-25 (10 mg/kg/day) and 3) peptide mimetic agent (5 mg or 10 mg/kg/day). Test compounds were diluted in DMSO and administered using osmotic mini-pumps (Durect, Cupertino, Calif.). Exponentially growing MA148 human ovarian carcinoma cells, kindly provided by Prof. Ramakrishnan (R. P. Dings et al., Cancer Res., 63, 382-385 (2003)) or B16 mouse melanoma cells were cultured in RPM1 1640 medium (Life Technologies, Grand Island, N.Y.). […]
Tumor volume was determined by measuring the diameters of tumors using calipers (Scienceware, Pequannock, N.J.) using the equation for the volume of a spheroid: (a^2×b×[…])/6, where ‘a’ is the width and ‘b’ the length or the tumor. […] Tumor weights correlated well with tumor volumes calculated in this way. Statistical differences in tumor growth curves were analyzed using the two-way ANOVA test.

MA148 tumor vessels = test: Histological analysis of microvessel density, anti-CD31 staining, MA148 tumors; type: in vivo, mice; settings: mean ± standard error, 20 images
Procedure: (§2) Immunohistochemistry was used to assess microvessel density and the extent of total cell apoptosis. Approximately, tumors of the same size and with no apparent necrosis were selected for processing. On the last day of treatment mice were sacrificed and tumors were excised. Tumor tissue was embedded in tissue freezing medium (Miles Inc, Elkart, Ind.) and shock frozen in liquid nitrogen. Sections of tissue (10 μm thickness) were prepared for immunohistochemical analysis. For this, tissue sections were brought to room temperature, air dried overnight, and then fixed in acetone for 10 minutes. Slides were allowed to air dry for at least 30 minutes and were washed three limes for 5 minutes each in phosphate-buffered saline (PBS, pH 7.4). Samples were then blocked with PBS containing 0.1% bovine serum albumin and 3% human serum albumin for at least 30 minutes at room temperature in a humidified box. Samples were subsequently incubated with phycoerytrin (PE)-conjugated monoclonal antibody to CD31 (PECAM-1) in a 1:50 dilution (Pharmigen, San Diego, Calif.) to stain for microvessel density.
(§3) Digital images were stored and processed using Adobe Photoshop (Adobe Inc., Mountain View Calif.). Quantification of microvessel density, were determined as described previously (Dings et al., Cancer Res 63, 382-385 (2003)). Statistical analysis was performed using the Student's t-test.

B16F10 tumor vessels = test: Histological analysis of microvessel density, anti-CD31 staining, B16F10 tumors; type: in vivo, mice; settings: B16F10, 10 mg/kg; mean ± standard error, 20 images
Procedure: as §2, §3

[1] = system: leukocytes in tumors of tumor bearing mice; test: Leukocyte infiltration into tumors, anti-CD45 and anti-CD8 staining; type: in vivo; settings: compared with βpep-25; FIG. 4
Procedure: as §1, with “N.Y.). This medium was supplemented with 10% fetal bovine serum and 1% penicillin/streptomycin (Cellgro, Mediatech, Washington, D.C.) at 37° C and 5% CO2.” for “N.Y.).”
Similar size tumors without apparent widespread necrosis were embedded in tissue freezing medium (Miles Inc.; Elkart, Ind.) and snap frozen in liquid nitrogen. […] The vessel density and architecture was quantified as described earlier [Griffioen et al., Biochemical Journal 354, 233-242 (2001)]. […]

With “5,11,17,23-Tetra-tert-butyl-25,27-bis(2-guanidinoethoxy)-26,28-dihydroxy calix[4]arene trifluoroacetic acid salt [Compound 27]” the “effect on EC migration, wound assay (in words)” value (HUVEC) was “as effective as βpep-25 and more effective than 40”, the “B16 tumor growth (in words)” value (B16 melanoma) was “significantly inhibited” and the “Branch Points” value (MA148 tumor vessels; MA148, 2.7 mg/kg) was 1.1 ± 0.3 pixel counts per image. For the same molecule, the “End Points” value (MA148 tumor vessels; MA148, 2.7 mg/kg) was 32.7 ± 6.0 pixel counts per image, the “Vessel Density” value (MA148 tumor vessels; MA148, 2.7 mg/kg) was 6046 ± 533 pixel counts per image and the “Vessel Length” value (MA148 tumor vessels; MA148, 2.7 mg/kg) was 4.2 ± 0.6 pixel counts per image. For the same molecule, the “Branch Points” value (MA148 tumor vessels; MA148, 10 mg/kg) was 2.3 ± 0.6 pixel counts per image, the “End Points” value (MA148 tumor vessels; MA148, 10 mg/kg) was 14.7 ± 2.2 pixel counts per image and the “Vessel Density” value (MA148 tumor vessels; MA148, 10 mg/kg) was 7402 ± 763 pixel counts per image. For the same molecule, the “Vessel Length” value (MA148 tumor vessels; MA148, 10 mg/kg) was 5.0 ± 0.7 pixel counts per image, the “Branch Points” value (B16F10 tumor vessels) was 3.5 ± 0.5 pixel counts per image and the “End Points” value (B16F10 tumor vessels) was 35.2 ± 4.0 pixel counts per image. For the same molecule, the “Vessel Density” value (B16F10 tumor vessels) was 10743 ± 764 pixel counts per image, the “Vessel Length” value (B16F10 tumor vessels) was 7.5 ± 0.6 pixel counts per image and the “leukocyte infiltration into tumors (in words)” value [1] was “clearly more effective at increasing leukocyte infiltration into tumors than βpep-25”.
In the case of `CN(C)CCNC(=O)COc1c2cccc1Cc1cccc(c1OCC(=O)NCCN(C)C)Cc1cccc(c1OCC(=O)NCCN(C)C)Cc1cccc(c1OCC(=O)NCCN(C)C)C2` [Compound 40], the “B16 tumor growth (in words)” value (B16 melanoma) is reported as “significantly inhibited”, the “Branch Points” value (MA148 tumor vessels; MA148, 2.4 mg/kg) is reported as 1.6 ± 0.3 pixel counts per image and the “End Points” value (MA148 tumor vessels; MA148, 2.4 mg/kg) is reported as 15.7 ± 2.1 pixel counts per image. For the same molecule, the “Vessel Density” value (MA148 tumor vessels; MA148, 2.4 mg/kg) was 7148 ± 844 pixel counts per image, the “Vessel Length” value (MA148 tumor vessels; MA148, 2.4 mg/kg) was 5.3 ± 0.7 pixel counts per image and the “Branch Points” value (MA148 tumor vessels; MA148, 10 mg/kg) was 1.0 ± 0.2 pixel counts per image. The “End Points” value (MA148 tumor vessels; MA148, 10 mg/kg) was 23.0 ± 2.9 pixel counts per image, the “Vessel Density” value (MA148 tumor vessels; MA148, 10 mg/kg) was 5112 ± 439 pixel counts per image and the “Vessel Length” value (MA148 tumor vessels; MA148, 10 mg/kg) was 3.3 ± 0.5 pixel counts per image. The “Branch Points” value (B16F10 tumor vessels) was 5.2 ± 0.7 pixel counts per image, the “End Points” value (B16F10 tumor vessels) was 21.9 ± 2.6 pixel counts per image and the “Vessel Density” value (B16F10 tumor vessels) was 10231 ± 1330 pixel counts per image. The “Vessel Length” value (B16F10 tumor vessels) was 8.6 ± 1.2 pixel counts per image and the “leukocyte infiltration into tumors (in words)” value [1] was “clearly more effective at increasing leukocyte infiltration into tumors than βpep-25”.
